Test results reported in patent US7566731B2, “Hetaryl substituted homotetramic and homotetronic acids and their use thereof as pesticides” (Bayer CropScience AG, priority 2001, dated 2009).

Experiments:
Assay type in all cases: in vivo
Meloidogyne incognita = assay: Meloidogyne test; conditions: active compound concentration 20 ppm; lettuce in sand
Description: To prepare a suitable active compound preparation, 1 part by weight of active compound is mixed with the stated amounts of solvent and emulsifier and the concentrate is diluted to the desired concentration with water. Containers are filled with sand, active compound solution, Meloidogyne incognita egg/larval suspension and lettuce seeds. The lettuce seeds germinate and the plantlets develop. The galls develop on the roots. After the desired time, the nematicidal efficacy is determined in % with reference to gall formation. 100% means that no galls were found; 0% means that the number of galls on the treated plants corresponds to that of the untreated control.

[1] = tested on: two-spotted spider mite (Tetranychus urticae); assay: Tetranychus test (OP resistant/immersion treatment); conditions: 100 ppm; bean plants immersed
Description: To prepare a suitable active compound preparation, 1 part by weight of active compound is mixed with the stated amounts of solvent and emulsifier and the concentrate is diluted to the desired concentration with emulsifier-containing water. Bean plants (Phaseolus vulgaris) which are severely infested by all stages of the two-spotted spider mite (Tetranychus urticae) are immersed into an active compound preparation of the desired concentration. After the desired time, the efficacy is determined in %. 100% means that all of the spider mites have been destroyed; 0% means that none of the spider mites have been destroyed.

Sugar beet [2] = assay: Pre-emergence test, Sugar beet; conditions: 125 g ai/ha, after three weeks
Description: (§1) To prepare a suitable active compound preparation, 1 part by weight of active compound is mixed with the stated amount of solvent, the stated amount of emulsifier is added, and the concentrate is diluted with water to the desired concentration. Seeds of the test plants are sown in normal soil. After approximately 24 hours, the soil is sprayed with the active compound preparation in such a way that the active compound quantities desired in each case are applied per unit area. The concentration of the spray mixture is chosen such that the active compound quantities desired in each case are applied in 1000 l of water/ha. After three weeks, the degree of damage to the plants is scored in % damage in comparison with the development of the untreated control. The figures denote: • 0%=no effect (like untreated control) • 100%=total destruction

Digitaria [3] = assay: Pre-emergence test, Digitaria; conditions: 125 g ai/ha, after three weeks
Description: as §1

Matricaria = assay: Pre-emergence test, Matricaria; conditions: 125 g ai/ha, after three weeks
Description: as §1

[4] = tested on: fall armyworm caterpillars (Spodoptera frugiperda); assay: Spodoptera frugiperda test; conditions: 500 ppm; after 7 days; cabbage leaves immersed
Description: (§2) To prepare a suitable active compound preparation, 1 part by weight of active compound is mixed with the stated amounts of solvent and emulsifier and the concentrate is diluted to the desired concentration with emulsifier-containing water. Cabbage leaves (Brassica oleracea) are treated by immersing in the active compound preparation of the desired concentration and populated with larvae of the fall armyworm caterpillars (Spodoptera frugiperda) while the leaves are still moist. After the desired time, the destruction rate is determined in %. 100% means that all the caterpillars have been destroyed; 0% means that none of the caterpillars have been destroyed.

Wheat = assay: Post-emergence test, Wheat; conditions: 125 g ai/ha, after three weeks
Description: as §1, with “Test plants which have a height” for “Seeds”, “5 to 15 cm” for “the test plants”, “are” for “are sown in normal soil. After approximately 24 hours, the soil is”

Digitaria [5] = assay: Post-emergence test, Digitaria; conditions: 125 g ai/ha, after three weeks
Description: as §1, with “Test plants which have a height” for “Seeds”, “5 to 15 cm” for “the test plants”, “are” for “are sown in normal soil. After approximately 24 hours, the soil is”

Setaria [6] = assay: Post-emergence test, Setaria; conditions: 125 g ai/ha, after three weeks
Description: as §1, with “Test plants which have a height” for “Seeds”, “5 to 15 cm” for “the test plants”, “are” for “are sown in normal soil. After approximately 24 hours, the soil is”

Alopecurus = assay: Post-emergence test, Alopecurus; conditions: 125 g ai/ha, after three weeks
Description: as §1, with “Test plants which have a height” for “Seeds”, “5 to 15 cm” for “the test plants”, “are” for “are sown in normal soil. After approximately 24 hours, the soil is”

[7] = tested on: green peach aphid (Myzus persicae); assay: Myzus test; conditions: 500 ppm; after 6 days; cabbage leaves immersed
Description: To prepare a suitable active compound preparation, 1 part by weight of active compound is mixed with the stated amounts of solvent and emulsifier and the concentrate is diluted to the desired concentration with emulsifier-containing water. Cabbage leaves (Brassica oleracea) which are severely infested by the green peach aphid (Myzus persicae) are treated by immersing into the active compound preparation of the desired concentration. After the desired time, the destruction rate is determined in %. 100% means that all of the aphids have been destroyed; 0% means that none of the aphids have been destroyed.

Sugar beet [8] = assay: Post-emergence test, Sugar beet; conditions: 125 g ai/ha, after three weeks
Description: as §1, with “Test plants which have a height” for “Seeds”, “5 to 15 cm” for “the test plants”, “are” for “are sown in normal soil. After approximately 24 hours, the soil is”

Setaria [9] = assay: Pre-emergence test, Setaria; conditions: 125 g ai/ha, after three weeks
Description: as §1

Avena fatua = assay: Post-emergence test, Avena fatua; conditions: 125 g ai/ha, after three weeks
Description: as §1, with “Test plants which have a height” for “Seeds”, “5 to 15 cm” for “the test plants”, “are” for “are sown in normal soil. After approximately 24 hours, the soil is”

Lolium = assay: Pre-emergence test, Lolium; conditions: 125 g ai/ha, after three weeks
Description: as §1

[10] = tested on: larvae of the mustard beetle (Phaedon cochleariae); assay: Phaedon larvae test; conditions: after 7 days, cabbage leaves immersed
Description: as §2, with “mustard beetle (Phaedon cochleariae)” for “fall armyworm caterpillars (Spodoptera frugiperda)”, “beetle larvae” for “caterpillars”

Row | Compound | destruction rate (nematicidal efficacy with reference to gall formation) (Meloidogyne incognita) | destruction rate (efficacy) [1] | degree of damage to the plants (% damage), Sugar beet (Sugar beet [2]) | degree of damage to the plants (% damage), Digitaria (Digitaria [3]) | degree of damage to the plants (% damage), Matricaria (Matricaria) | destruction rate [4] | degree of damage to the plants (% damage), Wheat (Wheat) | degree of damage to the plants (% damage), Digitaria (Digitaria [5]) | degree of damage to the plants (% damage), Setaria (Setaria [6]) | degree of damage to the plants (% damage), Alopecurus (Alopecurus) | destruction rate [7] | degree of damage to the plants (% damage), Sugar beet (Sugar beet [8]) | degree of damage to the plants (% damage), Setaria (Setaria [9]) | degree of damage to the plants (% damage), Avena fatua (Avena fatua) | degree of damage to the plants (% damage), Lolium (Lolium) | destruction rate ([10]; 500 ppm) | destruction rate ([10]; 1000 ppm)
1 | CCOC(=O)OC1=C(c2nc(-c3ccc(Cl)cc3)sc2C)C(=O)NC(C)(C)C1 [Example I-1-c-1] | 100% | – | – | – | – | – | – | – | – | – | – | – | – | – | – | – | –
2 | Cc1sc(-c2ccc(Cl)cc2)nc1C1=C(O)C(C)(C)C(C)(C)OC1=O [Example I-2-a-1] | 100% | 100% | 0% | 100% | 95% | 100% | 10% | 95% | 100% | 90% | 90% | 0% | 100% | 90% | 100% | 100% | –
3 | Cc1sc(-c2ccc(Cl)cc2)nc1C1=C(O)CC(C)(C)NC1=O [Example I-1-a-1] | – | 98% | – | – | – | – | – | – | – | – | – | – | – | – | – | – | 100%
